Data reported in US20050085509A1, “Piperidin-2-one derivative compounds and drugs containing these compounds as the active ingredient” (priority 2001, published 2005).

What was measured:
[1] = molecular target: T1, recombinant human p38αMAP kinase (Homo sapiens, UniProt Q16539); test: p38αMAP kinase inhibitory activity (2): ATF-2 phosphorylation, Alpha Screen; format: biochemical; conditions: 30° C., 30 minutes, read-out: IC50, inhibition of ATF-2 phosphorylation by p38αMAP kinase
T1 construct: purchased Upstate Biotechnology Inc. #14-251
T1 sequence (Q16539 whole entry): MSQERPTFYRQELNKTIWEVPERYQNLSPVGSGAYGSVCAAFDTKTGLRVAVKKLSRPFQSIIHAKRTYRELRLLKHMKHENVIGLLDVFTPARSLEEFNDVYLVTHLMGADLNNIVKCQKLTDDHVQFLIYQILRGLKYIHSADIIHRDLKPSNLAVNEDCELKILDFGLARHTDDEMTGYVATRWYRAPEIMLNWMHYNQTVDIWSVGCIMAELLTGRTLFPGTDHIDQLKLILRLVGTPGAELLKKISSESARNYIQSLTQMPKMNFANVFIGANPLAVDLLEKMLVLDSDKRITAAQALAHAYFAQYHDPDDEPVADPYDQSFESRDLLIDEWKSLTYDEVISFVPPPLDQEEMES
Description: (2) Study of p38αMAP Kinase Inhibitory Activity (2)
Using activation transcription factor 2 (hereinafter abbreviated as ATF-2) which is a substrate of p38αMAP kinase, the inhibition effect of the compound of the present invention on the ATF-2 phosphorylation by recombinant human p38αMAP kinase was examined.
A kinase buffer (25 mM Tris-HCl (pH 7.5), 5 mM β-glycerophosphate, 2 mM dithiothreitol, 0.1 mM Na3VO4, 10 mM MgCl2) containing recombinant human p38αMAP kinase (Upstate Biotechnology #14-251) (5 μL) was added to a 384-well plate for fluorescence measurement ([…] protein/well). […] Separately, 5 μL of a substrate mixture prepared with the kinase buffer (biotinylated ATF-2 (5 μg/mL) (Upstate Biotechnology, #14-432), adenosine triphosphate (90 μmol/L) (Sigma #FL-AAS) and anti-phosphorylated ATF-2 antibody (20-fold dilution) (Cell Signaling Technology, #9221L) were added and an enzyme reaction was carried out at 30° C. for 30 minutes. After completion of the reaction, the enzyme reaction was terminated by adding 5 μL of Hepes buffer containing 0.25% BSA and 100 mM EDTA. The amount of complex of phosphorylated ATF2 and anti-phosphorylated ATF2 generated by this reaction was measured using Alpha Screen™ Rabbit Detection kit (Packard #6760607). […]

[2] = system: THP-1; test: Inhibition activity against TNF-α production using human cell line THP-1; format: cell-based; conditions: 1.5 h, THP-1 cells, LPS stimulation, 90 minutes, ELISA, read-out: IC50, inhibition of LPS-induced TNF-α production
Description: (4) Inhibition Activity Against TNF-α Production Using Human Cell Line
Using THP-1, which is a human monocyte cell line, the inhibition effect of the compound of the present invention on the TNF-α production induced by lipopolyliposaccharide (LPS) stimulation was studied.
Each 50 μL of lipopolyliposaccharide (LPS; Difco #3120-25-0) prepared at the concentration of 40 ng/mL using RPMI-1640 medium containing 10% fetal calf serum (hereinafter abbreviated as RPMI-1640) and RPMI-1640 containing the compound of the present invention was added to a 96-well plate for tissue culture. […] After completion of the reaction, the culture medium supernatant was recovered and the amount of produced TNF-α was measured using an ELISA kit (Invitrogen, #850090192).
The inhibition activity against TNF-α production, which is the effect of the compound of the present invention, was calculated as an inhibition rate (%) by the following formula. Inhibition rate (%)={(AC−AX)/(AC−AB)}×100 • AB: Measured value without LPS induction • AC: Measured value with LPS induction in the absence of the compound • AX: Measured value with LPS induction in the presence of the compound

[3] = molecular target: T1, recombinant human p38αMAP kinase; test: p38αMAP kinase inhibitory activity (1): ATF-2 phosphorylation, Western blotting; format: biochemical; conditions: Western blotting with anti-phosphorylated ATF-2 antibody; FIG. 1
Source text: (1) Study of p38αMAP Kinase Inhibitory Activity (1)
Using activation transcription factor 2 (activating transcription factor 2; ATF-2, Cell Signaling Inc., #9224L) which is a substrate of p38αMAP kinase, the inhibitory effect of the compound of the present invention on the ATF-2 phosphorylation by recombinant human p38αMAP kinase (Upstate Biotechnology Inc., #14-251) was studied by the Western-blotting method using the anti-phosphorylated ATF-2 antibody (Cell Signaling Inc., #9221L). In other words, 10 μL of a solution of the compound of the present invention at a known concentration was added to 10 μL of the kinase buffer (Cell Signaling Inc., #9802) containing recombinant human p38αMAP kinase (100 ng/tube) and pre-incubated for 10 minutes at 30° C. Then, 20 μL of adenosine triphosphate (ATP)/ATF-2 mixture was added and after the incubation of 30 minutes at 30° C., 20 μL of SDS buffer (187.5 mM Tris/6% SDS/30% glycerol/150 mM DTT/0.03% bromophenol blue) was added to stop the enzyme reaction. After heating at 100° C. for 5 minutes, mixing and centrifugation were conducted. After re-mixing, 20 μL of the sample was subjected to an electrophoresis on SDS-PAGE gel (10-20%, Daiichi Pure Chemicals Co., Ltd.). […] After washing with TBS-T solution, phosphorylated ATF-2 was detected using Western blotting detection reagent (Amersham Pharmacia Biotech).

- IC50 [1]: 0.0429 µM
- IC50 [2]: 0.0145 µM
- concentration at which ATF-2 phosphorylation by p38αMAP kinase was inhibited [3]: ≥ 0.3 µM
Compound: O=C1CCC(Cc2ccc(F)cc2F)CN1c1c(Cl)cccc1Cl (stereo not drawn) [Example 1 (1), 1-(2,6-dichlorophenyl)-5-(2,4-difluorobenzyl)piperidin-2-one]
